We go through 4 substances from US20080193976A1 (priority 2005, published 2008).

The test concerns CD4+T-cells. It counts as cell-based, human.

Regarding ARGRIRNGALLRVYVPRS [Peptide 75-76], the epitope classification result was “major (or significant) epitope” and the responders came to 22.62%.

As to RLVALYLAARLSWNQ [Peptide 15], the epitope classification result is “minor epitopes” and the responders worked out at 14.29%.

For the substance SQDLDAIWRGFYIAG [Peptide 65], the epitope classification result is recorded as “minor epitopes” and the responders turned out to be 14.29%.

As for tetanus toxoid [reference compound], the positive control response entry is listed as “robust positive control responses”.
